Results reported in PubChem BioAssay (NCI).
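Briefly, cells in 96-well plates were exposed to five compound concentrations for 48 h, and endpoints were estimated by linear interpolation. Abbreviation: GI50, concentration required for 50% inhibition of growth. TGI: total growth inhibition.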

Tests used:
Experiment in all cases: NCI anticancer screen, dose series, 48 h
[1] = system: HCC-2998 colon
[2] = system: UACC-257 melanoma
[3] = system: OVCAR-5 ovarian
[4] = system: RXF 393 renal
[5] = system: A498 renal
[6] = system: LOX IMVI melanoma
[7] = system: UACC-62 melanoma
[8] = system: T-47D breast
[9] = system: OVCAR-4 ovarian
[10] = system: MCF7 breast

Structure (SMILES) | TGI [1] | TGI [2] | TGI [3] | TGI [4] | TGI [5] | TGI [6] | TGI [7] | TGI [8] | TGI [9] | TGI [10] | GI50 [1] | GI50 [3] | GI50 [7] | GI50 [8] | GI50 [9]
CCOC(=O)c1c(CN2CCNCC2)nc2ccccc2c1-c1ccccc1 | 3.63 µM | 15.7 µM | 31.1 µM | 13.8 µM | 28.3 µM | 31.6 µM | 28.2 µM | 30 µM | 33.1 µM | 28.1 µM |  |  |  |  | 
C/C=C\C(CC(=O)NCCc1cn(C(=O)OCc2ccccc2)c2ccccc12)CC(=O)OC (stereo not drawn) | > 100 µM | > 100 µM | > 100 µM | > 100 µM | > 100 µM |  | > 100 µM |  | > 100 µM | > 100 µM |  |  |  |  | 
COC(=O)[C@H]1[C@@H](C(C)C)O[C@@H](C(C)C)O[C@H]1C(F)(F)F | > 100 µM | > 100 µM | > 100 µM | > 100 µM | > 100 µM | > 100 µM | > 100 µM | > 100 µM | > 100 µM | > 100 µM |  |  |  |  | 
Cc1cc(O)c(C(C)C)cc1SC#N | 32.9 µM | 38.1 µM |  | 29.1 µM | 31.9 µM | 32.6 µM | 28.7 µM | 65 µM | 28.5 µM | 31.6 µM |  |  |  |  | 
COc1nc(N(C)C)nc2c1n(C)c[n+]2C |  | > 100 µM | > 100 µM | > 100 µM | > 100 µM | > 100 µM | > 100 µM | > 100 µM |  |  |  |  |  |  | 
N/N=C1/C2CN3CCN(C2)CC1(c1ccc([N+](=O)[O-])cc1)C3 |  | > 100 µM | > 100 µM | > 100 µM | > 100 µM | > 100 µM | > 100 µM |  | > 100 µM | > 100 µM |  |  |  |  | 
O=[N+]([O-])c1ccc2nc(-c3ccccn3)c(-c3ccccn3)nc2c1 | > 100 µM | > 100 µM | > 100 µM | > 100 µM | > 100 µM |  | > 100 µM | > 100 µM | > 100 µM | > 100 µM |  |  |  |  | 
c1ccc(CCN2CCc3[nH]c4ccccc4c3C2)cc1 | 30.5 µM | 30.4 µM | 67 µM | 34.3 µM | 33.3 µM | 35.4 µM | > 10 µM | 51.5 µM | > 100 µM | 40.9 µM |  |  |  |  | 
COc1cc2nc(-c3ccc4ccccc4c3)[nH]c(=O)c2cc1OC | > 100 µM | > 100 µM | > 100 µM | > 100 µM | > 100 µM | > 100 µM | > 100 µM | > 100 µM | > 100 µM | > 100 µM |  |  |  |  | 
NC(=S)N/N=C\c1ccc(OCc2cccc(COc3ccc(/C=N/NC(N)=S)cc3)n2)cc1 |  | > 100 µM | 52.1 µM | 47.9 µM | > 100 µM | > 100 µM |  | 0.921 µM | > 100 µM | > 100 µM |  |  |  |  | 
O=C(CCN1CCCC1)Nc1ccc2sc3ccccc3c(=O)c2n1 | 17 µM | 17 µM | 19 µM |  | 33.7 µM |  | 17.2 µM | > 31.6 µM | 21.7 µM | 21.3 µM |  |  |  |  | 
CC1OC2=N[C@@H]1C(=O)N[C@@H](C(C)C)C1=N[C@H](C(=O)N[C@@H](C(C)C)C3=N[C@H](C(=O)N[C@@H](C(C)C)C4=N[C@H](C(=O)N[C@H]2C(C)C)C(C)O4)C(C)O3)C(C)O1 (stereo partly drawn) | > 10 µM | > 10 µM | > 10 µM | > 10 µM | > 10 µM | > 10 µM |  | > 10 µM | > 10 µM | > 10 µM |  |  |  |  | 
Cn1nc2n(c1=O)CCCN2 | > 100 µM | > 100 µM | > 100 µM | > 100 µM | > 100 µM | > 100 µM |  |  | > 100 µM |  |  |  |  |  | 
C/C(=C\c1ccccn1)c1ccccn1 | > 100 µM | > 100 µM | > 100 µM | > 100 µM | > 100 µM |  | > 100 µM |  | > 100 µM | > 100 µM |  |  |  |  | 
O=[N+]([O-])c1ccc(S[C@@H]2[C@H]3c4c(-c5ccccc5)[nH]c(-c5ccccc5)c4[C@@H]2C[C@H]3Cl)cc1 |  | > 100 µM | > 100 µM | 4.3 µM | 89 µM | 15.4 µM | 37.3 µM | 8.67 µM | 5.4 µM | 16.5 µM |  |  |  |  | 
CC1(C)OCC(C(O)C2OC(C)(C)OC2C=O)O1 (stereo not drawn) |  | > 100 µM | > 100 µM |  | > 100 µM | > 100 µM | > 100 µM |  | > 100 µM | > 100 µM |  |  |  |  | 
Clc1ccc(N2N=C(c3cccc(Nc4ccncc4)c3)CC2c2ccc3c(c2)OCO3)cc1 (stereo not drawn) | 3.2 µM |  | 5.69 µM |  |  |  | 3.32 µM | 5.07 µM | 3.25 µM |  | 1.79 µM | 2.11 µM | 1.76 µM | 2.13 µM | 1.69 µM
COc1ccc2c(c1)C(N)=C(c1ccccc1)C2=O | > 100 µM | > 100 µM | > 100 µM |  | > 100 µM | > 100 µM | > 100 µM | > 100 µM | > 100 µM | > 100 µM |  |  |  |  | 
CCOC(=O)C1(C(=O)OCC)[C@H](c2ccccc2)C2=NO[C@@H]3CCC[C@H]1[C@H]23 | 60 µM | > 100 µM | > 100 µM | > 100 µM |  | > 100 µM | > 100 µM | > 100 µM | > 100 µM | > 100 µM |  |  |  |  | 
O=C(NCc1cccc(C(F)(F)F)c1)c1cc2sccc2nc1C(F)(F)F |  | > 100 µM | > 100 µM | > 100 µM |  |  | > 100 µM | > 100 µM | > 100 µM | > 100 µM |  |  |  |  | 
C/C(=N\NC(=S)N1CCCCC1)c1cccc(C)n1 | 21.8 µM | 12.1 µM | 21.1 µM | 14.4 µM | 0.607 µM | 11.3 µM | 0.352 µM | 16.9 µM | 51.6 µM |  |  |  |  |  | 
Cc1ccc(C(=O)O)c(CC2Cc3c(C)cccc3C2=O)c1 (stereo not drawn) | > 100 µM | > 100 µM | > 100 µM | > 100 µM |  | > 100 µM | > 100 µM | > 100 µM | > 100 µM | > 100 µM |  |  |  |  | 
Nc1nc(-c2ccccc2N=NN2CCCC2)nc2ccccc12 |  | 14.9 µM | 4.66 µM | 20.4 µM | 20.2 µM | 3.77 µM | 3.77 µM | 19.4 µM | 19.1 µM | 55.9 µM |  |  |  |  | 
COc1nc2c(c(=O)n1C)N[C@H]1[C@H](OC(C)=O)[C@@H](OC(C)=O)CO[C@H]1N2 |  | > 100 µM | > 100 µM | > 100 µM | > 100 µM | > 100 µM | > 100 µM | > 100 µM | > 100 µM | > 100 µM |  |  |  |  | 
